Structures can show the parent of a compound that is named as a salt. Active and inactive are the calls of the source.
Legend:
[1] = target: RNA-editing ligase 1, mitochondrial (Trypanosoma brucei brucei, UniProt P86926); assay: inhibition of trypanosome RNA editing ligase – biochemical, fluorescence, Trypanosoma brucei, dose response (AID 1117295); type: functional
[2] = target: Major prion protein (Homo sapiens, UniProt P04156); type: functional, cell-based
[3] = cells
[4] = Late stage counterscreen for inhibitors of Trypanosoma brucei methionyl tRNA synthetase (MetRS): Luminescence-based cell-based high throughput dose response assay to identify compounds that are cytotoxic to Jurkat human T lymphocyte cells.; type: functional
[5] = Counterscreen for inhibitors of Trypanosoma brucei methionyl tRNA synthetase (MetRS): Luminescence-based cell-based high throughput dose response assay to identify compounds that are cytotoxic to Jurkat human T lymphocyte cells.; type: functional
[6] = target: T1, Methionyl-tRNA synthetase, putative (Trypanosoma brucei brucei, UniProt Q38C91); type: functional, Trypanosoma brucei brucei strain 927/4 GUTat10.1
T1 sequence (Q38C91 whole entry): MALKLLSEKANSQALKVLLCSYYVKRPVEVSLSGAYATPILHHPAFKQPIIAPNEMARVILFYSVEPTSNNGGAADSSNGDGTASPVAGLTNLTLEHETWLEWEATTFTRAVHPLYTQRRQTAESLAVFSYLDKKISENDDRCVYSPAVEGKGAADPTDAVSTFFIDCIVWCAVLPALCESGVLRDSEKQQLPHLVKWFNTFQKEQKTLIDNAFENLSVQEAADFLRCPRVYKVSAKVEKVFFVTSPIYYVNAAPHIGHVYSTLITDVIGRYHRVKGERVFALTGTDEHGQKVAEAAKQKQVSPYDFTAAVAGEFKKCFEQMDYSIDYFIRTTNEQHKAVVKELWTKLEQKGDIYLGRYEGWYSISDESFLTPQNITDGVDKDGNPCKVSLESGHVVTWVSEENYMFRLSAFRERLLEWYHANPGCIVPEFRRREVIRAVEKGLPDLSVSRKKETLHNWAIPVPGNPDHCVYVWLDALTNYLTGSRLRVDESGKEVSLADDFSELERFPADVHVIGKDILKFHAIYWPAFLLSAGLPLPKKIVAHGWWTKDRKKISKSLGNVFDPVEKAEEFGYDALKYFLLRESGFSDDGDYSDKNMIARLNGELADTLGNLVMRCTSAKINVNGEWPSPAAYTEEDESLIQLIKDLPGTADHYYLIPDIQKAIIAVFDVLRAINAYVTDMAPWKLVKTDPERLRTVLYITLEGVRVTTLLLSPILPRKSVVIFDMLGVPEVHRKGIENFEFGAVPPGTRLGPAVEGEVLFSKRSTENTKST

[7] = target: T1, Methionyl-tRNA synthetase, putative; type: functional, Trypanosoma brucei brucei strain 927/4 GUTat10.1; remark: listed apart in the source
[8] = target: T2, Oxysterols receptor LXR-beta (Homo sapiens, UniProt P55055); type: functional, cell-based
T2 sequence (P55055 whole entry): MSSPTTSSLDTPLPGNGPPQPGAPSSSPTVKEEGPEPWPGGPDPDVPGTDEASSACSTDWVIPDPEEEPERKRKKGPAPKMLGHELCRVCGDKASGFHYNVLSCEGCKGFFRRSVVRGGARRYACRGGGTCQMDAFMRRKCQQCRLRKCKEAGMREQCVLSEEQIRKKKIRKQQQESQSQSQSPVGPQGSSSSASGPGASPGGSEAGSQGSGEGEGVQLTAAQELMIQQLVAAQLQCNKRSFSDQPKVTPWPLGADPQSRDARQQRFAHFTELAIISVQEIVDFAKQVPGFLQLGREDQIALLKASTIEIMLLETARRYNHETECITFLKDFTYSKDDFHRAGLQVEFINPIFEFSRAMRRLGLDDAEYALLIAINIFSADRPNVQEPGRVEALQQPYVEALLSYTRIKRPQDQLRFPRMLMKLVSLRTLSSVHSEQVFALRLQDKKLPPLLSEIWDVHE

[9] = target: Endoplasmic reticulum aminopeptidase 1 (Homo sapiens, UniProt Q9NZ08); assay: inhibition of human ERAP1 enzyme activity – biochemical, cherry-pick, set 2, plate reader, dose response (AID 743314)
[10] = target: Solute carrier family 12 member 2/member 5 (Homo sapiens, UniProt P55011+Q9H2X9); assay: KCC2 and NKCC1 inhibition by rubidium flux, cell-based, NKCC1 counter-screen (AID 1734); type: functional, HEK293
[11] = target: Prothrombin (Homo sapiens, UniProt P00734); assay: Thrombin 1536 HTS Dose Response Confirmation. [Related pubchem assays: 1046 (Thrombin 1536 HTS; hits were confirmed in this assay)]; type: functional
[12] = target: Induced myeloid leukemia cell differentiation protein Mcl-1 (Homo sapiens, UniProt Q07820); type: functional
[13] = target: Luciferin 4-monooxygenase (Photinus pyralis, UniProt P08659); assay: inhibition of purified Photinus pyralis luciferase – biochemical, luminescence, dose response (AID 1891)
[14] = target: T3, Protein skinhead-1 (Caenorhabditis elegans, UniProt P34707); type: functional
T3 sequence (P34707 whole entry): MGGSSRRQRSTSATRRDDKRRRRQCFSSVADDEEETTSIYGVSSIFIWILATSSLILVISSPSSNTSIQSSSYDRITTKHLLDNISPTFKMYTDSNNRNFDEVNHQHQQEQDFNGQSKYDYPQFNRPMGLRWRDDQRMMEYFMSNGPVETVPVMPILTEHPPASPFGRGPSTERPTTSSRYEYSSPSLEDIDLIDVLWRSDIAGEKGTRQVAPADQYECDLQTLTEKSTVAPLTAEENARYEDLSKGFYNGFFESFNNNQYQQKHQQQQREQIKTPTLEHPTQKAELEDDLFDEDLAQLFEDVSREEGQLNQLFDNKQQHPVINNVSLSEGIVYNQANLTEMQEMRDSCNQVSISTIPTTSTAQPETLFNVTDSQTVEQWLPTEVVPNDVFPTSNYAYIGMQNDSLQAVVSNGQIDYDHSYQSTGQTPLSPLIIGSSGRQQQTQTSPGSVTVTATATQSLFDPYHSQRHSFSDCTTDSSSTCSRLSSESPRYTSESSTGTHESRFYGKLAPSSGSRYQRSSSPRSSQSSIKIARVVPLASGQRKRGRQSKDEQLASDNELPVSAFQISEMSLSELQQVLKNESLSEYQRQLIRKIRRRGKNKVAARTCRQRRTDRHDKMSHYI

[15] = Luminescence Cell-Based Dose Confirmation HTS to Identify Inhibitors of Platelet Dense Granule Release. [Related pubchem assays: 1663 (Primary HTS), 1678 (Summary of Project)]; type: functional
[16] = loss of viability in HepG2 cells – cell-based, CellTiter-Glo, cherry-picked, cytotoxicity control for Shn3 inhibitor project, dose response (AID 624134); type: functional
[17] = Shn3 3'UTR reporter signal decrease – cell-based, Clone20 osteoblasts, firefly luciferase, cherry-pick, set 2, Schnurri-3 inhibitor project, dose response (AID 720490); type: functional;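 note: actives lower the luminescence signal as inhibitors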
[18] = reduction of Shn3 3'UTR-driven luciferase in osteoblasts – cell-based, Clone20 osteoblasts, firefly luciferase, cherry-picked, dose response (AID 624132); type: functional;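 note: firefly luciferase luminescence from reporter carrying the Shn3 3'UTR in osteoblasts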
[19] = non-specific 3'UTR reporter inhibition in Clone20-Shn3RL – cell-based, Renilla luciferase, cherry-picked, counter-screen for Shn3 inhibitor project, dose response (AID 624133); type: functional
[20] = target: T4, Ubiquitin-conjugating enzyme E2 N (Homo sapiens, UniProt P61088); type: functional;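 note: Dose-response confirmation in a TR-FRET assay detecting UBC13-driven polyubiquitin chain formation, inhibition measured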
T4 sequence (P61088 whole entry): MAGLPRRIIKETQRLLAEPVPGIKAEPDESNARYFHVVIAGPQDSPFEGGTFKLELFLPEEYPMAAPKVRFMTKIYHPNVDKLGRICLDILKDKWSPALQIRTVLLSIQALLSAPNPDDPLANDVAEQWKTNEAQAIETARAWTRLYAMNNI

[21] = general cell-killing toxicity readout – plate reader, dry powder samples, cytotoxicity control for PAX8 inhibitor project, dose response (AID 743021); type: functional, cell-based
[22] = target: Paired box protein Pax-8 (Homo sapiens, UniProt Q06710); assay: PAX8 transcriptional activity inhibition in RMG-I – RMG-I cells, luciferase, cherry-pick, dose response (AID 687027); type: functional, cell-based;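 note: luciferase reporter driven by Pax8 target thyroperoxidase promoter measured by SteadyGlo luminescence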
[23] = target: Kallikrein-7 (Homo sapiens, UniProt P49862); assay: Fluorescence Intensity-based biochemical primary high throughput dose response assay to identify activators of kallikrein-7 (K7) zymogen.
[24] = target: T5, Small ubiquitin-related modifier 1 (Homo sapiens, UniProt P63165); assay: SUMO1 protein-protein binding blockers, potency – biochemical, FRET, dose response (AID 624383); type: functional; settings: read-out: IC50_Mean
[25] = target: T5, Small ubiquitin-related modifier 1; assay: SUMO1 protein interaction blockers, potency – biochemical, fluorescence polarization, uHTS hits, dose response (AID 624382); type: functional; settings: read-out: IC50_Mean
[26] = Dd2 parasite growth inhibition in erythrocytes – SYBR Green, dry powder samples, set 9, dose response (AID 1159568); type: functional, cell-based
[27] = cells; remark: listed apart in the source
[28] = target: T2, Oxysterols receptor LXR-beta; type: functional, cell-based; remark: listed apart in the source
[29] = IC50 of insulin release inhibition, rat insulinoma INS-1E line, 5 mM glucose, cell-based (AID 1117331); type: functional
[30] = P. falciparum Dd2 growth inhibitors, dose response, SYBR Green, cherry-picked samples (AID 1159567); type: functional, cell-based
[31] = toxicity to human hepatoma HepG2 cells – cell-based, cherry-picked samples, cytotoxicity control, dose response (AID 1159577); type: functional

CCCCCCCN1C(Nc2ccccc2)=NC[C@@H]1CC(C)C
IC50 [1]: > 96.6 µM (inactive)

O=C(O)CSc1ccnc2cc(Cl)ccc12
IC50 [2]: 4.04 µM (active) | IC50 [3]: > 138 µM (inactive)

COc1ccccc1Cn1c(=S)[nH]c2ccccc2c1=O
IC50 [2]: 3.49 µM (active) | IC50 [3]: > 138 µM (inactive)

O=C(NCc1nc2ccccc2[nH]1)C1=C[C@H](c2ccccc2)C[C@H](OCc2ccc(CO)cc2)O1
IC50 [4]: > 83.3 µM (inactive)

COc1ccc(OCC(O)CNC(=O)Nc2ccc(Cl)cc2)cc1 (centres undefined)
IC50 [4]: > 83.3 µM (inactive) | IC50 [5]: 83.3 µM (inactive) | IC50 [6]: 4.39 µM (active) | IC50 [7]: 4.66 µM (active)

Cc1ccc2c(c1)N=C(c1ccccc1)CC(C(Cl)Cl)=N2
EC50 [8]: > 67.5 µM (inactive)

CCN(CC)Cc1c(O)ccc2cc(-c3nc4ccccc4n3C)c(=O)oc12
AC50 [9]: 1.8 µM (active)

O=C(Nc1cccnc1)c1ccc(COc2ccccc2Cl)o1
IC50 [10]: 12.1 µM (active)

COc1cc(CCC(=O)Nc2cccc(C(F)(F)F)c2)cc(OC)c1OC
IC50 [11]: > 50 µM (not active)

O=C(CSc1nnc(-c2ccco2)c(-c2ccco2)n1)c1ccccc1
IC50 [1]: > 96.6 µM (inactive) | IC50 [12]: 3.19 µM (active)

COc1cccc(-c2noc(-c3cccs3)n2)c1
EC50 [13]: 7.26 µM (active) | IC50 [14]: 13.7 µM (active) | EC50 [15]: > 112 µM (not active) | EC50 [8]: > 67.6 µM (inactive)

COc1cccc(-n2c(C)nc3c(cnn3-c3ccc(Cl)cc3)c2=O)c1
AC50 [16]: 61.4 µM (active) | AC50 [17]: 2.14 µM (active) | AC50 [18]: 0.391 µM (active) | AC50 [19]: 2.98 µM (active)

O=C(NC(=S)Nn1cnnc1)c1ccccc1Cl
IC50 [11]: > 50 µM (not active)

CN(Cc1ccccc1)S(=O)(=O)c1ccc(Cl)c(C(=O)NCCc2ccccn2)c1
IC50 [10]: 2.5 µM (active)

CCC[C@@H](CN[C@@H](CNC)[C@H](C)CC)NCC1CCC(C(C)(C)C)CC1 (some centres undefined)
IC50 [20]: > 20 µM (inactive) | AC50 [21]: 37.7 µM (active) | AC50 [22]: 14.4 µM (active)

O=C(Cc1cc(=O)oc2cc(O)ccc12)NN=Cc1ccc(N(CCCl)CCCl)cc1
EC50 [23]: > 23.2 µM (inactive) | IC50 [24]: 8.3 µM (active) | IC50 [25]: > 66.6 µM (inactive)

Cc1cccn2c(=O)c3cc(C(=O)N4CCOCC4)n(C)c3nc12
EC50 [23]: > 2.58 µM (active)

C[C@@H]1CN([C@@H](C)CO)C(=O)c2cc(N(C)C)ccc2O[C@@H](C)CCCCO[C@H]1CN(C)S(=O)(=O)c1ccc(F)cc1
AC50 [26]: 19.4 µM (active) | AC50 [22]: 6.76 µM (active)

CCOC(=O)c1cc(-c2cccc(O)c2)oc1C
EC50 [27]: > 67.5 µM (inactive) | EC50 [28]: > 67.5 µM (inactive)

C[C@@H](C1=C(CCN(C)C)Cc2ccccc21)c1ccccn1
IC50 [29]: 8.41 µM (inactive)

COc1cc(CN2C[C@@H]3N[C@H](C2)[C@H]3c2ccc(/C=C/c3ccccc3)cc2)cc(OC)c1
AC50 [30]: 2.11 µM (active) | AC50 [31]: 7.85 µM (active)

C(=C\c1ccc([C@@H]2[C@@H]3CN(Cc4nccs4)C[C@H]2N3)cc1)/c1ccccc1
AC50 [30]: 3.67 µM (active) | AC50 [31]: 7.83 µM (active)

C[C@@H]1CCCCO[C@@H](CN(C)S(=O)(=O)c2ccc(F)cc2)[C@H](C)CN([C@H](C)CO)C(=O)c2cc(N(C)C)ccc2O1
AC50 [26]: 4.62 µM (active)

CCN1CCCC(OC(=O)C(c2ccccc2)c2ccccc2)C1 (centres undefined) [PIPERIDOLATE HYDROCHLORIDE]
IC50 [29]: 18.2 µM (inactive)

Reference: ChEMBL document CHEMBL1201862, “PubChem BioAssay data set” (2004)
